In patent US8759546B2, “Physical nano-complexes for preventing and treating cancer and method for manufacturing the same” (Gold Nanotech Inc., priority 2012, dated 2014):

Experiments:
[1] = superoxide radical scavenging effect; format: biochemical; details: compared to vitamin E alone
Description: Refer to FIG. 2 for a schematic diagram of the anti-oxidant effect of the EGCG-nanogold complexes.

[2] = tested on: bladder cancer cells (MBT-2); test: viability of MBT-2 cells at 48 hour post-treatment; format: cell-based
Description: (§1) Firstly, to evaluate the tumor cytotoxicity of EGCG and/or nanogold, we examined viabilities of bladder cancer cells (MBT-2) and African green monkey kidney cells (Vero cell acts as a normal cell) at 48 hour post-EGCG or -nanogold treatment. Referring to FIG. 3, which is a schematic diagram of the cell viability of Vero cells and MBT-2 cells under different treating concentration of EGCG and nanogold. […] Refer to FIG. 4 for a schematic diagram of the concentrations of EGCG and nanogold mediated the 50% of cell growth inhibition of Vero cell and MBT-2 cell (IC50). […] In contrast, the Vero cell numbers were not changed in the presence of EGCG or nanogold.

[3] = tested on: African green monkey kidney cells (Vero cell); test: viability of Vero cells at 48 hour post-treatment; format: cell-based; details: in the presence of EGCG or nanogold
Description: as §1

MBT-2 cells [4] = test: apoptosis detection by Annexin-V and PI staining, flow cytometry; format: cell-based; details: in 48 hours
Description: Cell apoptosis features some morphological alterations, such as chromatin condensation, membrane blebbing, inter-nucleosomal degradation of DNA, and apoptotic body formation. Previous study reported that EGCG can induce apoptosis via the PI3K/Akt pathway and Bcl-2 family proteins in T24 human bladder cancer cells. […] The cells in test were subjected to flow cytometry analysis, whereby apoptotic bodies can be detected by Annexin-V and PI staining Refer to FIG. […]

MBT-2 cells [5] = test: cell cycle of MBT-2 cells; format: cell-based
Description: Following, the mechanism of the EGCG and nanogold mediated cell apoptosis was investigated. Refer to FIG. 7 for a table of the cell cycle of MBT-2 cell treated by various concentrations of EGCG and nanogold. […] The MBT-2 cells otherwise underwent G0/G1 arrest when the doses of EGCG (50 μM) and nanogold (2 ppm) were increased.

caspase-3 and -7 = test: Caspase-3/7 activity in MBT-2 cells; format: cell-based; details: 12 and 24 hours treatment
Description: To assure that the EGCG and nanogold mediated apoptosis are triggered by the caspase effectors, we then examined expressions of the apoptosis-dependent enzymes caspase-3 and -7. Refer to FIG. 8 for a schematic diagram of Caspase-3/7 activity after EGCG and/or nanogold treatment for 12 and 24 hours.

With epigallocatechin-3-gallate [EGCG] the “superoxide radical scavenging activity” value [1] was “significant superoxide radical scavenging activity”, the “MBT-2 cell numbers, % of the control” value ([2]; EGCG and nanogold 2 ppm, combined or alone) was 49.7% and the “viability of MBT-2 cells” value ([2]; different treating concentrations) was “reduce the viability of MBT-2 cells in a concentration-dependent manner”. The Vero cell numbers [3] was “not changed”, the “percentage of Annexin-V-positive cells” value (MBT-2 cells [4]) was 16.6% and the cell cycle arrest (MBT-2 cells [5]; increased doses: EGCG 50 μM, nanogold 2 ppm) was “G0/G1 arrest”. The cell cycle arrest (MBT-2 cells [5]; lower doses) was “arrested in the S phase” and the “caspase-3 and -7, fold increase versus the vehicle-alone controls” value (caspase-3 and -7) was 2.42±0.43 fold.
